Values of other authors as cited in patent US20250082624A1, “METHODS OF TREATING COGNITIVE IMPAIRMENT” (NeuroTherapia, Inc., priority 2023, published 2025).

System: rats
Details: intracerebroventricular administration; cited from earlier work

Cc1c(C(=O)c2cccc3ccccc23)c2cccc3c2n1[C@H](CN1CCOCC1)CO3 [WIN 55,212-2]
Aβ-induced microglial activation, cognitive impairment, loss of neuronal markers: prevented A13-induced microglial activation, cognitive impairment, and loss of neuronal markers
